In ChEMBL document CHEMBL4480451, “Novel nonapeptide GLP (28-36) amide derivatives with improved hypoglycemic and body weight lowering effects” (2019):
The source made the active and inactive calls. The calls are words filed in the database; no cut-off is given here.

What was measured:
Mus musculus [1] = test: Antidiabetic activity in STZ-induced diabetic ICR mouse model assessed as reduction in HbA1c level at 0.1 to 10 umol/kg, ip for 5 consecutive days; format: functional, organism-based
Mus musculus [2] = test: Antidiabetic activity in STZ-induced diabetic ICR mouse model assessed as fasting blood glucose level at 1 umol/kg, ip for 5 consecutive days by glucometery (reference value: 17.7 +/- 1.1 mM); format: functional
Mus musculus [3] = test: Antiobesity activity in C57BL/6J mouse model of diet-induced obesity assessed as reduction in cumulative food intake at 1 umol/kg, ip qd for 4 weeks relative to control; format: functional; set-up: scale not given: the % may be the effect or the level left
INS1 [4] = test: Cytoprotective activity against glucolipotoxicity-mediated cell death in rat INS-1 cells assessed as reduction in cell viability at 10 uM after 24 hrs by MTT assay (reference value: 31%); format: functional
INS1 [5] = test: Cytoprotective activity against H2O2-induced oxidative stress-mediated cell death in rat INS-1 cells assessed as reduction in cell viability at 10 uM after 24 hrs by MTT assay (reference value: 37%); format: functional
Mus musculus [6] = test: Antiobesity activity in C57BL/6J mouse model of diet-induced obesity assessed as reduction in serum total cholesterol levels at 1 umol/kg, ip qd for 4 weeks; format: functional, organism-based
Mus musculus [7] = test: Hypoglycemic activity in ICR mouse assessed as reduction in plasma glucose AUC (0 to 120 mins) at 1 umol/kg, ip pretreated 30 mins prior to glucose challenge […] by intraperitoneal glucose tolerance test; format: functional, organism-based
Mus musculus [8] = test: Antiobesity activity in C57BL/6J mouse model of diet-induced obesity assessed as reduction in circulating adiponectin level at 1 umol/kg, ip qd for 4 weeks; format: functional, organism-based
INS1 [9] = test: Cytoprotective activity against STZ-mediated cell death in rat INS-1 cells assessed as reduction in cell viability at 10 uM after 24 hrs by MTT assay (reference value: 50%); format: functional
Mus musculus [10] = test: Antiobesity activity in C57BL/6J mouse model of diet-induced obesity assessed as reduction in LDL/HDL levels at 1 umol/kg, ip qd for 4 weeks; format: functional, organism-based
Mus musculus [11] = test: Antiobesity activity in C57BL/6J mouse model of diet-induced obesity assessed as reduction in triglyceride levels at 1 umol/kg, ip qd for 4 weeks; format: functional, organism-based
Mus musculus [12] = test: Antidiabetic activity in STZ-induced diabetic ICR mouse model assessed as fasting blood glucose level at 10 umol/kg, ip for 5 consecutive days by glucometery (reference value: 17.7 +/- 1.1 mM); format: functional
INS1 [13] = test: Cytoprotective activity against H2O2-induced oxidative stress-mediated cell death in rat INS-1 cells assessed as reduction in apoptotic cells at 0.1 to 10 uM after 24 hrs by Annexin V/propidium iodide staining-based flow cytometric analysis; format: functional
Mus musculus [14] = test: Antiobesity activity in C57BL/6J mouse model of diet-induced obesity assessed as reduction in body weight at 1 umol/kg, ip qd for 4 weeks; format: functional, organism-based
Mus musculus [15] = test: Antiobesity activity in C57BL/6J mouse model of diet-induced obesity assessed as reduction in circulating leptin level at 1 umol/kg, ip qd for 4 weeks; format: functional, organism-based
INS1 [16] = test: Cytoprotective activity against STZ-mediated cell death in rat INS-1 cells assessed as reduction in apoptotic cells at 0.1 to 10 uM after 24 hrs by Annexin V/propidium iodide staining-based flow cytometric analysis; format: functional
Mus musculus [17] = test: Antiobesity activity in C57BL/6J mouse model of diet-induced obesity assessed as reduction in ALT levels at 1 umol/kg, ip qd for 4 weeks; format: functional, organism-based
Mus musculus [18] = test: Antiobesity activity in C57BL/6J mouse model of diet-induced obesity assessed as reduction in AST levels at 1 umol/kg, ip qd for 4 weeks; format: functional, organism-based
INS1 [19] = test: Cytoprotective activity against STZ-mediated cell death in rat INS-1 cells assessed as reduction in cell viability at 1 uM after 24 hrs by MTT assay (reference value: 50%); format: functional
Mus musculus [20] = test: Antiobesity activity in C57BL/6J mouse model of diet-induced obesity assessed as increase in small brown adipocytes at 1 umol/kg, ip qd for 4 weeks by haematoxylin and eosin staining-based assay; format: functional, organism-based
Mus musculus [21] = test: Hypoglycemic activity in ICR mouse assessed as plasma glucose level at 1 umol/kg, ip pretreated 30 mins prior to glucose challenge and measured at 15 mins post challenge by intraperitoneal glucose tolerance test (reference value: 15.3 +/- 1.2 mmol/L); format: functional
Mus musculus [22] = test: Antidiabetic activity in STZ-induced diabetic ICR mouse model assessed as fasting blood glucose level at 0.1 umol/kg, ip for 5 consecutive days by glucometery (reference value: 17.7 +/- 1.1 mM); format: functional
INS1 [23] = test: Cytoprotective activity against glucolipotoxicity-mediated cell death in rat INS-1 cells assessed as reduction in apoptotic cells at 0.1 to 10 uM after 24 hrs by Annexin V/propidium iodide staining-based flow cytometric analysis; format: functional

Q: For H-FIAWLVKGRKKK-NH2, which Activity (Mus musculus [1]) is on record?
A: The Activity was “inactive”.

Q: And the Activity (Mus musculus [2])?
A: Its Activity is 14.9 mM.

Q: What about the Activity (Mus musculus [3]) of the same substance?
A: Its Activity is 12.7%.

Q: And the Activity (INS1 [4])?
A: The Activity was 21%.

Q: What about the Activity (INS1 [5]) of the same substance?
A: Its Activity is 17%.

Q: And the Activity (Mus musculus [6])?
A: The Activity was “Active”.

Q: What about the Activity (Mus musculus [7]) of the same substance?
A: Its Activity is “Active”.

Q: What about the Activity (Mus musculus [8]) of the same substance?
A: The Activity was “inactive”.

Q: What about the Activity (INS1 [9]) of the same substance?
A: Its Activity is 29%.

Q: What about the Activity (Mus musculus [10]) of the same substance?
A: Its Activity is “inactive”.

Q: What about the Activity (Mus musculus [11]) of the same substance?
A: Its Activity is “Active”.

Q: What about the Activity (Mus musculus [12]) of the same substance?
A: Its Activity is 15.03 mM.

Q: What about the Activity (INS1 [13]) of the same substance?
A: Its Activity is “Active”.

Q: What about the Activity (Mus musculus [14]) of the same substance?
A: The Activity was “Active”.

Q: What about the Activity (Mus musculus [15]) of the same substance?
A: The Activity was “inactive”.

Q: And the Activity (INS1 [16])?
A: The Activity was “Active”.

Q: What about the Activity (Mus musculus [17]) of the same substance?
A: The Activity was “Active”.

Q: What about the Activity (Mus musculus [18]) of the same substance?
A: The Activity was “Active”.

Q: And the Activity (INS1 [19])?
A: The Activity was 36%.

Q: What about the Activity (Mus musculus [20]) of the same substance?
A: The Activity was “Active”.

Q: And the Activity (Mus musculus [21])?
A: The Activity was 10.8 mmol/L.

Q: What about the Activity (Mus musculus [22]) of the same substance?
A: The Activity was 16.5 mM.

Q: And the Activity (INS1 [23])?
A: The Activity was “Active”.

Q: With H-FIAWLVKGRKKKKKK-NH2 as the substance, how does the Activity (Mus musculus [7]) read?
A: The Activity was “Active”.

Q: And the Activity (Mus musculus [21])?
A: Its Activity is 11.9 mmol/L.
